Reference: publication PMC4503722, “Novel Phenotypic Outcomes Identified for a Public Collection of Approved Drugs from a Publicly Accessible Panel of Assays” (PLoS ONE, 2015)
Like-named read-outs stand apart in the source and are kept apart here.

Legend:
Colo320 = assay: cells; assay type: cell-based
HT-29 = assay: cells; assay type: cell-based
hGSK3b = biological target: T1, hGSK3b (Homo sapiens, UniProt P49841); assay: Cerep LANCE kinase assay hGSK3b (S1 assay 34); assay type: biochemical
T1 construct: purchased Cerep (LANCE kinase assay platform, contract assay)
T1 sequence (P49841 whole entry): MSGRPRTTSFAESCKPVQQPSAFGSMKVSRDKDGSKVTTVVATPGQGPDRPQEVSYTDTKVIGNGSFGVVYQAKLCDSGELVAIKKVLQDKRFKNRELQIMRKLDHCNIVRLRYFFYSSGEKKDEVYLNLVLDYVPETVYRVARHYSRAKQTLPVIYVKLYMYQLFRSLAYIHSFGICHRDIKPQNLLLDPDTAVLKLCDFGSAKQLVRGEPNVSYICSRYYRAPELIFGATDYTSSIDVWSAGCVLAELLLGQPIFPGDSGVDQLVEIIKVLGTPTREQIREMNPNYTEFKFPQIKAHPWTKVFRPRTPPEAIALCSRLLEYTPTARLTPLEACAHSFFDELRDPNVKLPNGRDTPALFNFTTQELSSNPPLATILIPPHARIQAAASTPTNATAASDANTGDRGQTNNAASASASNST

HCT116 = assay: cells; assay type: cell-based
hp70S6K1 (RPS6KB1) = biological target: T2, hp70S6K1 (RPS6KB1) (Homo sapiens, UniProt P23443); assay: Cerep LANCE kinase assay hp70S6K1 (S1 assay 31); assay type: biochemical
T2 construct: purchased Cerep (LANCE kinase assay platform, contract assay)
T2 sequence (P23443 whole entry): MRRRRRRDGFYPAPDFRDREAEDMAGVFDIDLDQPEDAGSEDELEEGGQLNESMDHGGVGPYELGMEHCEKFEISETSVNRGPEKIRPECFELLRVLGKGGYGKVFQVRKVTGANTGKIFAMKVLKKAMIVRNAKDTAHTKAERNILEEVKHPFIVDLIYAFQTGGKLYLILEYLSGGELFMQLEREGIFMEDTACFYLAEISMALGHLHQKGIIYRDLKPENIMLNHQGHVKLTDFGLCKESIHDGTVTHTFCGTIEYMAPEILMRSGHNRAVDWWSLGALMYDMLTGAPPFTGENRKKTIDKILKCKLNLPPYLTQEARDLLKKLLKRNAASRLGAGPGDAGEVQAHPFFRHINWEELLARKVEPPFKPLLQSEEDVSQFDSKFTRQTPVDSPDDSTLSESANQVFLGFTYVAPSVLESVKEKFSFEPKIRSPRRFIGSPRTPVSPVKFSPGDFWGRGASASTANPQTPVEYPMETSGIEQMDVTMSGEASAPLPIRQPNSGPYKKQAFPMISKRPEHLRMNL

RKO = assay: cells; assay type: cell-based
[1] = tested on: endothelial tube formation in co-cultures of ECFCs and ADSCs treated with VEGF; assay: cells; assay type: cell-based, human
DLD-1 = assay: cells; assay type: cell-based
hKDR = biological target: T3, hKDR (Homo sapiens, UniProt P35968); assay: Cerep LANCE kinase assay hKDR (S1 assay 32); assay type: biochemical
T3 construct: purchased Cerep (LANCE kinase assay platform, contract assay)
T3 sequence (P35968 20-1356): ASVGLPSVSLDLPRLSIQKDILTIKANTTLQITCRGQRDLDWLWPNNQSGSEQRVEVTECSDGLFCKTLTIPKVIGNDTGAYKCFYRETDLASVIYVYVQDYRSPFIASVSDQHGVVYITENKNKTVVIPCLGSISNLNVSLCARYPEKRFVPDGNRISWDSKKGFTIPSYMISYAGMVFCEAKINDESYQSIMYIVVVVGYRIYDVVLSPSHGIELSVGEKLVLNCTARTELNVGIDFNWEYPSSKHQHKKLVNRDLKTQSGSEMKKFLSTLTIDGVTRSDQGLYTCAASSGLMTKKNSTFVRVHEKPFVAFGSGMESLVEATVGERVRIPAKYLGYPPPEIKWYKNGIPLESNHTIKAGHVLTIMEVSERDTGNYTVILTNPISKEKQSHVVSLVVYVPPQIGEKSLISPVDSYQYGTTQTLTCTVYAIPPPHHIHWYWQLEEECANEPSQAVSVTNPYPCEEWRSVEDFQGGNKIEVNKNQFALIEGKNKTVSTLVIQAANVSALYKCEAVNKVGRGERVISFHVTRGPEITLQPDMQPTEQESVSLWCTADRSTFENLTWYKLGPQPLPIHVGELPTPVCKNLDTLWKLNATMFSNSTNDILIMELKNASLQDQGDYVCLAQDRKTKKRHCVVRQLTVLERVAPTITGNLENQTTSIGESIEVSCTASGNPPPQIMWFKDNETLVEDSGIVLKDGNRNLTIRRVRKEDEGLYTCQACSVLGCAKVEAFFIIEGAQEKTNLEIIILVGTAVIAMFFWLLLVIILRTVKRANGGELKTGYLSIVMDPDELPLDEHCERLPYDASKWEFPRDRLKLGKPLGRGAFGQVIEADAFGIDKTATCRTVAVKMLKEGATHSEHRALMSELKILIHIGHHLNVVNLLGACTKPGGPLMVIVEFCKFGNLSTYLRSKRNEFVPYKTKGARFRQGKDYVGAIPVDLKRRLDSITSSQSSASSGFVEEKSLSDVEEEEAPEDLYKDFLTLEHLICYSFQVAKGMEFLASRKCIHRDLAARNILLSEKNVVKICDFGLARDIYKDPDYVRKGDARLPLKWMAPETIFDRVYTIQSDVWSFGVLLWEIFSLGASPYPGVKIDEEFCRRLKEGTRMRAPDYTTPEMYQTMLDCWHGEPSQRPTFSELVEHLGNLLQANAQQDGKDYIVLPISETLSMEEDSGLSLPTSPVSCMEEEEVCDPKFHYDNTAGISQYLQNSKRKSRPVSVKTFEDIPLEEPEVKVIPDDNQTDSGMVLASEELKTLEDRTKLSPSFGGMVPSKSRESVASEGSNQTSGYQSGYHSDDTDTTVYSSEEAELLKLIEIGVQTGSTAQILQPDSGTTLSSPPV

hFLT3 = biological target: T4, hFLT3 (Homo sapiens, UniProt P36888); assay: Cerep LANCE kinase assay hFLT3 (S1 assay 35); assay type: biochemical
T4 construct: purchased Cerep (LANCE kinase assay platform, contract assay)
T4 sequence (P36888 27-993): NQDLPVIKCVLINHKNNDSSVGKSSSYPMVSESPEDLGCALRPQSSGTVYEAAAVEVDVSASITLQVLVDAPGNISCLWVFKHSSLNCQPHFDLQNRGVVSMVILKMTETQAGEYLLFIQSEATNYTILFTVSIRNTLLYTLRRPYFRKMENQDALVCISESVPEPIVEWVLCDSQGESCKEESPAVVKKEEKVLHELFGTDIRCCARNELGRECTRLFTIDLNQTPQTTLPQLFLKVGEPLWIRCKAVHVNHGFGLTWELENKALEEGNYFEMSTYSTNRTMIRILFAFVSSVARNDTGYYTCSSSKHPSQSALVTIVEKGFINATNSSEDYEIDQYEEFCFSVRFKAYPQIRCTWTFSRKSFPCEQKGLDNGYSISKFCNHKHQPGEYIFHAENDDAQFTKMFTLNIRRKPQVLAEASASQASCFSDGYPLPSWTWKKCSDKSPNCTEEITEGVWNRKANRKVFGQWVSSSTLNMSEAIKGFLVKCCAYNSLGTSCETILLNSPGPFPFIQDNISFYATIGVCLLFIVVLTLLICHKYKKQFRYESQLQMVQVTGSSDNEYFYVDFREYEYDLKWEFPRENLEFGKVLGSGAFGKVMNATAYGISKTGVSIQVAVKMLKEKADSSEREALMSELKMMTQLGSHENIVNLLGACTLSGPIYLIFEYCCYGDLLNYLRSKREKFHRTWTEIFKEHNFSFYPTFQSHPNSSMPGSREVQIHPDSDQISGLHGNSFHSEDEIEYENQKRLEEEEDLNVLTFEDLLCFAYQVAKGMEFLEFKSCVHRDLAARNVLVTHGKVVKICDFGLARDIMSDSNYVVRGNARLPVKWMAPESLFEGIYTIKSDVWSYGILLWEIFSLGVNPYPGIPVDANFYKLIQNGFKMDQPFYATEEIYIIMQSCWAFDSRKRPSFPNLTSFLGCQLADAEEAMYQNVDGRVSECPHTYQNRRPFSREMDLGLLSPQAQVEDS

HeLa cells = assay: cells; assay type: cell-based; conditions: HeLa, read-out: CellCycle G2/M
hJAK2 = biological target: T5, hJAK2 (Homo sapiens, UniProt O60674); assay: Cerep LANCE kinase assay hJAK2 (S1 assay 33); assay type: biochemical
T5 construct: purchased Cerep (LANCE kinase assay platform, contract assay)
T5 sequence (O60674 whole entry): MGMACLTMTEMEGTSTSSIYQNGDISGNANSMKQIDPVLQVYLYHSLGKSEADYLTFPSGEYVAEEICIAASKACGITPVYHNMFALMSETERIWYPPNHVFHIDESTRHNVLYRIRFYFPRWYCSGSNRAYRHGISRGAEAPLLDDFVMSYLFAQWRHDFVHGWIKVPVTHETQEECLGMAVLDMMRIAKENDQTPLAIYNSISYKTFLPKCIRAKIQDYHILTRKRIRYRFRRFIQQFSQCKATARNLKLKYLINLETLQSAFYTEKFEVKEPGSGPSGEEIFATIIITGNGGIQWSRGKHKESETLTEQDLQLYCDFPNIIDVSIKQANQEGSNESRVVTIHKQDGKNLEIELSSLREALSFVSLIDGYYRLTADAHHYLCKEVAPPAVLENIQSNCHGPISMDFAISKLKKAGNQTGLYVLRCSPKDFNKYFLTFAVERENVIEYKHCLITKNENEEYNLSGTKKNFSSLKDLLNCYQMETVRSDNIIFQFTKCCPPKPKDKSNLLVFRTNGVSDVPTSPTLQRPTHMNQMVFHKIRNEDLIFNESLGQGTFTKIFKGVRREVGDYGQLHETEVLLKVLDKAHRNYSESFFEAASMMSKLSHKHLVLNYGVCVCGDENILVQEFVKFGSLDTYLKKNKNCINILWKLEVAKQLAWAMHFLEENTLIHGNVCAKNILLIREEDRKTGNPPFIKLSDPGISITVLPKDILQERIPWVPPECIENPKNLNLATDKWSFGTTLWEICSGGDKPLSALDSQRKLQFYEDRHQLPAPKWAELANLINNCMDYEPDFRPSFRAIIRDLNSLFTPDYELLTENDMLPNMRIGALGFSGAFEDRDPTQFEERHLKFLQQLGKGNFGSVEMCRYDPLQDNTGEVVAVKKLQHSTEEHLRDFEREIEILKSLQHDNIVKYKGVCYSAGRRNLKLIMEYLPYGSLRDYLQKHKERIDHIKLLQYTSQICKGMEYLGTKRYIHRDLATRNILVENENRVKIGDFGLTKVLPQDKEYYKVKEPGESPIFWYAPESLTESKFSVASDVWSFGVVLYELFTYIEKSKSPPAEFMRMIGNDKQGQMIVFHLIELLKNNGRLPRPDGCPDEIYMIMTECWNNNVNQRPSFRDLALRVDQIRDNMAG

SW480 = assay: cells; assay type: cell-based
[2] = tested on: nuclear β-catenin in C2C12 cells; assay: cells; assay type: cell-based
[3] = tested on: HCT116 cells treated with a GSK3β inhibitor; assay: cells; assay type: cell-based
NCI-H716 cells = assay: cells; assay type: cell-based, Human
INS-1E cells = assay: cells; assay type: cell-based, rat
SNU-C1 = assay: cells; assay type: cell-based
[4] = Homo sapiens, COLO 320, read-out: Basal_Viability ATP Colo 320
[5] = Homo sapiens, HT-29, read-out: Basal_Viability ATP HT-29
[6] = Homo sapiens, HCT-116, read-out: Basal_Viability ATP HCT116
[7] = kinase assay, read-out: p70S6K1
[8] = Homo sapiens, RKO, read-out: Basal_Viability ATP RKO
[9] = Homo sapiens, read-out: Anti-Angiogenesis
[10] = Homo sapiens, DLD-1, read-out: Basal_Viability ATP DLD-1
[11] = Homo sapiens, SW480, read-out: Basal_Viability ATP SW480
[12] = Mus musculus, C2C12, read-out: Wnt Pathway
[13] = Homo sapiens, HCT-116, read-out: GSK3b inh pretreated_Viability ATP HCT116
[14] = Homo sapiens, NCI-H716, read-out: GLP 1 Secretion
[15] = Rattus norvegicus, INS-1E, read-out: Insulin Secretion
[16] = Homo sapiens, SNU-C1, read-out: Basal_Viability ATP SNU-C1

O=C(CCl)c1ccc(Cl)cc1Cl [2,2',4'-Trichloroacetophenone]
IC50 (Colo320; basal, read-out: Basal_Viability ATP Colo 320): 530 nM | IC50 (HT-29; basal; read-out: Basal_Viability ATP HT-29): 8520 nM | IC50 (hGSK3b; read-out: GSK3b): > 20000 nM | IC50 (HCT116; basal, read-out: Basal_Viability ATP HCT116): 6300 nM | IC50 (hp70S6K1 (RPS6KB1); read-out: p70S6K1): > 20000 nM | IC50 (RKO; basal; read-out: Basal_Viability ATP RKO): 4300 nM | IC50 ([1]; IC50 / EC50; endothelial tube area, ADSC/ECFC co-culture; read-out: Anti-Angiogenesis): 2490 nM | IC50 (DLD-1; basal, read-out: Basal_Viability ATP DLD-1): 2070 nM | IC50 (hKDR; read-out: KDR): > 20000 nM | IC50 (hFLT3; read-out: FLT3): > 20000 nM | EC50 (HeLa cells; IC50 / EC50): > 10000 nM | IC50 (hJAK2; read-out: JAK2): > 20000 nM | IC50 (SW480; basal, read-out: Basal_Viability ATP SW480): 1250 nM | EC50 ([2]; IC50 / EC50; C2C12 beta-catenin translocation; read-out: Wnt Pathway): 373 nM | IC50 ([3]; GSK3b inhibitor pretreated, read-out: GSK3b inh pretreated_Viability ATP HCT116): 1100 nM | EC50 (NCI-H716 cells; IC50 / EC50; NCI-H716; read-out: GLP 1 Secretion): > 10000 nM | EC50 (INS-1E cells; IC50 / EC50; INS-1E; read-out: Insulin Secretion): > 10000 nM | IC50 (SNU-C1; basal, read-out: Basal_Viability ATP SNU-C1): 2980 nM

COc1ccc(-c2ccc3cc(C(=O)O)ccc3c2)cc1C12CC3CC(CC(C3)C1)C2 [Adapalene]
IC50 (Colo320; [4]): 787 nM | IC50 (HT-29; [5]): 1120 nM | IC50 (hGSK3b; kinase assay, read-out: GSK3b): 7250 nM | IC50 (HCT116; [6]): 590 nM | IC50 (hp70S6K1 (RPS6KB1); [7]): > 20000 nM | IC50 (RKO; [8]): 444 nM | IC50 [1, 9]: 524 nM | IC50 (DLD-1; [10]): 597 nM | IC50 (hKDR; kinase assay, read-out: KDR): 7100 nM | IC50 (hFLT3; kinase assay, read-out: FLT3): > 20000 nM | EC50 (HeLa cells; Homo sapiens): > 10000 nM | IC50 (hJAK2; kinase assay, read-out: JAK2): 5570 nM | IC50 (SW480; [11]): 405 nM | EC50 [2, 12]: > 10000 nM | IC50 [3, 13]: 945 nM | EC50 (NCI-H716 cells; [14]): > 10000 nM | EC50 (INS-1E cells; [15]): > 10000 nM | IC50 (SNU-C1; [16]): 1780 nM

CCCSc1ccc2nc(NC(=O)OC)[nH]c2c1 [Albendazole]
IC50 (Colo320; [4]): 502 nM | IC50 (HT-29; [5]): > 20000 nM | IC50 (hGSK3b; read-out: GSK3b): > 20000 nM | IC50 (HCT116; [6]): 85.2 nM | IC50 (hp70S6K1 (RPS6KB1); read-out: p70S6K1): > 20000 nM | IC50 (RKO; [8]): 165 nM | IC50 [1, 9]: 355 nM | IC50 (DLD-1; [10]): 108 nM | IC50 (hKDR; read-out: KDR): > 20000 nM | IC50 (hFLT3; read-out: FLT3): > 20000 nM | EC50 (HeLa cells; Homo sapiens): 61.2 nM | IC50 (hJAK2; read-out: JAK2): > 20000 nM | IC50 (SW480; [11]): > 20000 nM | EC50 [2, 12]: 1280 nM | IC50 [3, 13]: 154 nM | EC50 (NCI-H716 cells; [14]): > 10000 nM | EC50 (INS-1E cells; [15]): > 10000 nM | IC50 (SNU-C1; [16]): > 20000 nM

Cn1cnc([N+](=O)[O-])c1Sc1ncnc2nc[nH]c12 [Azathioprine]
IC50 (Colo320; [4]): 10300 nM | IC50 (HT-29; [5]): > 20000 nM | IC50 (hGSK3b): > 20000 nM | IC50 (HCT116; [6]): 207 nM | IC50 (hp70S6K1 (RPS6KB1)): > 20000 nM | IC50 (RKO; [8]): 2660 nM | IC50 [1, 9]: > 10000 nM | IC50 (DLD-1; [10]): 364 nM | IC50 (hKDR): > 20000 nM | IC50 (hFLT3): > 20000 nM | EC50 (HeLa cells; Homo sapiens): > 10000 nM | IC50 (hJAK2): > 20000 nM | IC50 (SW480; [11]): 9440 nM | EC50 [2, 12]: > 10000 nM | IC50 [3, 13]: 623 nM | EC50 (NCI-H716 cells; [14]): > 10000 nM | EC50 (INS-1E cells; [15]): > 10000 nM | IC50 (SNU-C1; [16]): > 20000 nM

COC(=O)Nc1nc2ccc(C(=O)C3CC3)cc2[nH]1 [Ciclobendazole]
IC50 (Colo320; Homo sapiens, basal, Colo 320, read-out: Basal_Viability ATP Colo 320): 156 nM | IC50 (HT-29; Homo sapiens; basal; HT-29; read-out: Basal_Viability ATP HT-29): 1680 nM | IC50 (hGSK3b; kinase assay, read-out: GSK3b): 14900 nM | IC50 (HCT116; Homo sapiens, HCT-116, basal, HCT116, read-out: Basal_Viability ATP HCT116): 174 nM | IC50 (hp70S6K1 (RPS6KB1); [7]): > 20000 nM | IC50 (RKO; Homo sapiens; basal; RKO; read-out: Basal_Viability ATP RKO): 162 nM | IC50 ([1]; Homo sapiens; read-out: Anti-Angiogenesis): 1190 nM | IC50 (DLD-1; Homo sapiens, DLD-1, basal, DLD-1, read-out: Basal_Viability ATP DLD-1): 5460 nM | IC50 (hKDR; kinase assay, read-out: KDR): 15100 nM | IC50 (hFLT3; kinase assay, read-out: FLT3): 6140 nM | EC50 (HeLa cells; Homo sapiens, S2 Table, 20 = no response at highest concentration): 416 nM | IC50 (hJAK2; kinase assay, read-out: JAK2): > 20000 nM | IC50 (SW480; Homo sapiens, SW480, basal, SW480, read-out: Basal_Viability ATP SW480): > 20000 nM | EC50 ([2]; Mus musculus, C2C12; read-out: Wnt Pathway): 349 nM | EC50 (NCI-H716 cells; Homo sapiens, NCI-H716; read-out: GLP 1 Secretion): > 10000 nM | EC50 (INS-1E cells; Rattus norvegicus, INS-1E; read-out: Insulin Secretion): > 10000 nM | IC50 (SNU-C1; Homo sapiens, SNU-C1, basal, SNU-C1, read-out: Basal_Viability ATP SNU-C1): > 20000 nM

CC(C)C[C@H](NC(=O)[C@H](CCc1ccccc1)NC(=O)CN1CCOCC1)C(=O)N[C@@H](Cc1ccccc1)C(=O)N[C@@H](CC(C)C)C(=O)[C@@]1(C)CO1 [carfilzomib, reference compound]
IC50 (HT-29; Homo sapiens, HT-29; Table 2; 72 h, Cell TiterGlo, non-adherent; 20 coded; read-out: HT-29 viab. IC50): 3 nM | IC50 (HT-29; Homo sapiens, HT-29; read-out: Basal_Viability ATP HT-29): 3.18 nM | IC50 (hGSK3b; read-out: GSK3b): > 20000 nM | IC50 (HCT116; Homo sapiens, HCT-116, 72 h, read-out: HCT-116 viab. IC50, Table 2, basal, 72 h, Cell TiterGlo, non-adherent, 20 coded): 6 nM | IC50 (HCT116; Homo sapiens, HCT-116, basal, read-out: Basal_Viability ATP HCT116): 5.58 nM | IC50 (hp70S6K1 (RPS6KB1); read-out: p70S6K1): > 20000 nM | IC50 (RKO; Homo sapiens, RKO; Table 2; 72 h, Cell TiterGlo, non-adherent; 20 coded; read-out: RKO viab. IC50): 4 nM | IC50 (RKO; Homo sapiens, RKO; read-out: Basal_Viability ATP RKO): 3.94 nM | IC50 ([1]; Homo sapiens, IC50 / EC50; endothelial tube area, ADSC/ECFC co-culture; read-out: Anti-Angiogenesis): 20.4 nM | IC50 ([1]; Homo sapiens; read-out: Anti-Angio IC50): 20 nM | IC50 (DLD-1; Homo sapiens, DLD-1, 72 h, Table 2, 72 h, Cell TiterGlo, non-adherent, 20 coded, read-out: DLD-1 viab. IC50): 7 nM | IC50 (DLD-1; Homo sapiens, DLD-1, basal, read-out: Basal_Viability ATP DLD-1): 6.96 nM | IC50 (hKDR; read-out: KDR): > 20000 nM | IC50 (hFLT3; read-out: FLT3): > 20000 nM | EC50 (HeLa cells; Homo sapiens, IC50 / EC50): > 10000 nM | IC50 (hJAK2; read-out: JAK2): > 20000 nM | EC50 ([2]; Mus musculus, C2C12, IC50 / EC50; C2C12 beta-catenin translocation; read-out: Wnt Pathway): 15.2 nM | EC50 ([2]; Mus musculus, C2C12; read-out: Wnt pot. EC50): 15 nM | IC50 ([3]; Homo sapiens, HCT-116, read-out: HCT-116 (GSK3β) viab. IC50, Table 2, GSK3β inhibitor LY2090314 20 nM, 72 h, Cell TiterGlo, 20 coded): 2 nM | IC50 ([3]; Homo sapiens, HCT-116, GSK3b inhibitor pretreated, read-out: GSK3b inh pretreated_Viability ATP HCT116): 1.73 nM | EC50 (NCI-H716 cells; Homo sapiens, NCI-H716; read-out: GLP1 sec. EC50): > 10000 nM | EC50 (INS-1E cells; Rattus norvegicus, INS-1E; read-out: Ins. sec. EC50): > 10000 nM | IC50 (SNU-C1; Homo sapiens, SNU-C1, 72 h, Table 2, 72 h, Cell TiterGlo, non-adherent, 20 coded, read-out: SNU-C1 viab. IC50): 1 nM | IC50 (SNU-C1; Homo sapiens, SNU-C1, basal, read-out: Basal_Viability ATP SNU-C1): 1.47 nM
